Experiments:
[1] = Human plasma levels of penclomedine and demethylpenclomedine during 5 day penclomedine treatment; format: in vivo, human patients
Text: FIG. 1 depicts levels of penclomedine and the demethylpenclomedine metabolite in human plasma, as determined by HPLC chromatographic analysis with uv detection.
FIG. 2 depicts the penclomedine (gray shade) and demethylpenclomedine (white) levels in human plasma on each of five treatment days. Data are from a single patient and are typical. The same ordinate scale is used for both penclomedine and demethylpenclomedine. Pre-infusion levels are depicted without cross hatchings; end of infusion levels are depicted with cross hatchings.
A 1 ml aliquot of tissue homogenate or a […] was acidified with 200 ml of 0.7 M ammonium phosphate pH 2.7, then 3 ml of ethyl acetate was added. This mixture was vortexed, centrifuged and the organic layer was collected. Fifty microliters of DMSO were added, and the ethyl acetate was concentrated to approximately […] with a stream of dry nitrogen. Fifty microliters of acetonitrile were added to this residue, and the resulting solution was analyzed by HPLC. Human plasma was processed identically to mouse plasma with the exception that 500 ml of plasma was extracted. Concentrated cage washings were analyzed by HPLC without further processing.
HPLC Assays: The HPLC system consisted of a Hewlett-Packard Series II 1090 liquid chromatograph with diode array detector (Hewlett-Packard, Palo Alto, Calif.). The column used was an Alltech Adsorbosphere HS C18 5 m 250×4.6 mm column (Alltech Associates, Deerfield, Ill.). The system used a gradient elution consisting of 100% 10 mM ammonium phosphate buffer pH 2.7 progressing to 100% acetonitrile over 25 minutes at 1 ml/min. Detection was performed by means of ultraviolet absorbance at 240 nm as well as by means of radioactivity using a Radiomatic Flo-One/Beta A140 radioactive flow detector (Packard Instrument Co., Downers Grove, Ill.) equipped with a […] and Flo-Scint VI scintillation cocktail at a 2:1 ratio.
This example illustrates the distribution of penclomedine and 4-demethylpenclomedine in human plasma during a 5 day treatment schedule using penclomedine.
Plasma levels of the metabolite and penclomedine were determined in 9 patients during the 5 day treatment schedule. […] Demethylpenclomedine plasma levels were equal to penclomedine plasma levels by 10 min after end of the infusion and rose to 9.5 μM by 7 hrs. […] The ratio of demethylpenclomedine to penclomedine in the post-infusion plasma sample obtained on day 1 of treatment was approximately 1:1; however, impressive accumulation of demethylpenclomedine was noted during the five day treatment schedule and by the final day this ratio was often greater than 10. […] A summary of post-infusion demethylpenclomedine plasma levels determined on each day of treatment for 9 patients is set forth in Table 4.

[2] = cited from earlier work
[3] = tested on: dogs; details: cited from earlier work
[4] = tested on: rats; details: dose related; during or immediately after infusion; cited from earlier work
[5] = tested on: patients with advanced solid tumors; details: cited from earlier work
[6] = 1 hr i.v. infusion penclomedine 315 mg/m^2
[7] = human plasma, single patient, FIG. 1
[8] = repeated administration of penclomedine
[9] = five day samples, same patient, FIG. 2

Row | Compound | accumulation over the 5 day treatment ([1]; 9 patients) | time after end of infusion at which plasma levels equal those of penclomedine [1, 6] [min] | time present in plasma ([1]; clinical samples) [h] | ratio of demethylpenclomedine to penclomedine in plasma ([1]; final day of five day schedule, often) | persistence in plasma ([1]; five day treatment schedule) | plasma level time course [1, 7] | drug exposure relative to parent compound [1, 8] | plasma level relative to peak plasma level of penclomedine [1, 8] | detectability in the nervous system ([2]; during the time period of neurologic symptoms, rats, O'Reilly et al.) | predominant radioactive species in the brain ([2]; tumor-bearing rats) | plasma penclomedine levels associated with severe emesis and seizures [3] | decline of plasma levels after infusion [1, 6] | post-infusion plasma level [1, 9] | pre-infusion plasma level [1, 9] | α of biexponential decay [1, 7] [h⁻¹] | k el ([1]; in vivo, iv, human plasma, single patient, FIG. 1, read-out: β of biexponential decay (converted)) [s⁻¹] | neurotoxicity in rats [4] | toxicities reported in preclinical and early clinical studies ([5]; human, in vivo) | principal dose limiting toxicity ([5]; one hour infusion for 5 consecutive days, advanced solid tumors)
1 | COc1nc(C(Cl)(Cl)Cl)c(Cl)c(O)c1Cl [4-Demethylpenclomedine, 3,5-dichloro-2-methoxy-4-hydroxy-6-(trichloromethyl)-pyridine] | accumulation of metabolite was observed in all 9 patients | ≤ 10 | > 24 | greater than 10 | persisted in the plasma for an extended period of time | continues to increase with time | several hundred times that of the parent compound | greater than ten times the peak plasma level of penclomedine |  |  |  |  |  |  |  |  |  |  | 
2 | COc1nc(C(Cl)(Cl)Cl)c(Cl)c(OC)c1Cl [Penclomedine, 3,5-dichloro-2,4-dimethoxy-6-(trichloromethyl)pyridine] |  |  |  |  |  | rapidly cleared from plasma |  |  | penclomedine but not its metabolite is detectable in the nervous system | the predominant radioactive species in the brain was ^14 C-penclomedine | above 30 μM | rapidly declined in an apparently biexponential fashion | always less than μM | barely detectable | 3.88 | 0.000127 | muscle tremors, incoordination, convulsions and reduced activity | Neurological and hematological toxicities | Neurotoxicity, consisting of dysmetria, ataxia, and vertigo

Reference: patent US6235761A, “Compound, composition and method for treating cancer” (priority 1999, dated 2001)
